Like-named read-outs stand apart in the source and are kept apart here.
Columns and labels:
all trypanosome species = assay: resazurin assay, summary over trypanosome species; type: cell-based, Trypanosoma
T. b. brucei B48 = assay: microbe, parasite or virus in culture; type: cell-based, Trypanosoma brucei brucei; settings: for T. b. brucei B48 RF: RF = EC50 (parasite)/EC50(s427 WT); for T. b. brucei B48 SI: SI = EC50 (HEK)/EC50(parasite)
[1] = system: Trypanosoma congolense (IL3000); assay: resazurin drug sensitivity assay, T. congolense; type: cell-based; settings: for T. congolense RF: RF = EC50 (parasite)/EC50(s427 WT); for T. congolense SI: SI = EC50 (HEK)/EC50(parasite)
T. equiperdum (BoTat1) = assay: resazurin drug sensitivity assay, T. equiperdum; type: cell-based, Trypanosoma equiperdum; settings: for T. equiperdum RF: RF = EC50 (parasite)/EC50(s427 WT); for T. equiperdum SI: SI = EC50 (HEK)/EC50(parasite)
T. evansi (AnTat 3/3) = assay: resazurin drug sensitivity assay, T. evansi; type: cell-based, Trypanosoma evansi; settings: for T. evansi RF: RF = EC50 (parasite)/EC50(s427 WT); for T. evansi SI: SI = EC50 (HEK)/EC50(parasite); for EC50: Trypanosoma evansi
T. b. brucei s427 [2] = assay: resazurin drug sensitivity assay, T. b. brucei s427 wild-type bloodstream forms; type: cell-based, Trypanosoma brucei brucei; settings: for T. b. brucei s427 SI: SI = EC50 (HEK)/EC50(parasite); for EC50: Trypanosoma brucei, read-out: T. b. brucei s427 EC50
HEK 293 cells = assay: toxicity assay on HEK 293 cells (Alamar Blue); settings: for EC50: read-out: HEK 293 EC50, average ± SEM
[3] = system: Leishmania mexicana promastigotes; assay: resazurin drug sensitivity assay, L. mexicana promastigotes; type: cell-based; settings: for L. mexicana SI: SI = EC50 (HEK)/EC50(parasite)
[4] = system: trypanosomes of the Trypanozoon subgenus (T. b. brucei, T. evansi and T. equiperdum); assay: resazurin assay, summary over Trypanozoon subgenus trypanosomes; type: cell-based, Trypanosoma; settings: Trypanosoma brucei; T. b. brucei s427, B48, T. evansi, T. equiperdum; read-out: EC50 values against trypanosomes of the Trypanozoon subgenus (range)
[5] = system: kinetoplastid parasites (trypanosomes and L. mexicana); assay: resazurin assay, summary of anti-kinetoplastid activity across the board; type: cell-based; settings: Leishmania mexicana, read-out: EC50, anti-kinetoplastid activity across the board (range)
T. b. brucei s427 [6] = system: T. b. brucei s427; parameters: method as in doi:10.3390/M1070; settings: read-out: EC50 against T. b. brucei s427; cited from earlier work
macrophages RAW264.7 = system: macrophages RAW264.7; parameters: method as in doi:10.3390/M1070; settings: normal cell lines; cited from earlier work
[7] = Trypanosoma brucei, read-out: T. b. brucei B48 EC50, multi-drug-resistant clone, average ± SEM
[8] = Trypanosoma congolense, average ± SEM
[9] = Trypanosoma equiperdum, average ± SEM
[10] = Leishmania mexicana, promastigotes, average ± SEM, read-out: L. mexicana EC50
[11] = a = EC50 of control for 1, 3, 4
[12] = b = EC50 of control for 5, 6, 7

Row | SMILES | T. b. brucei B48 RF (T. b. brucei B48) | T. b. brucei B48 SI (T. b. brucei B48) | EC50 (T. b. brucei B48; [7]) [µM] | T. congolense RF [1] | EC50 [1, 8] [µM] | T. equiperdum RF (T. equiperdum (BoTat1)) | T. equiperdum SI (T. equiperdum (BoTat1)) | EC50 (T. equiperdum (BoTat1); [9]) [µM] | T. evansi RF (T. evansi (AnTat 3/3)) | T. evansi SI (T. evansi (AnTat 3/3)) | EC50 (T. evansi (AnTat 3/3); average ± SEM) [µM] | T. b. brucei s427 SI (T. b. brucei s427 [2]) | EC50 (T. b. brucei s427 [2]) [µM] | EC50 (HEK 293 cells) [µM] | T. congolense SI [1] | EC50 [3, 10] [µM] | L. mexicana SI [3] | EC50 [5] [µM] | other results
1 | CC(=O)O[C@H]1CC[C@]2(C)[C@H]3CC[C@]4(C)C(=CC[C@@]5(C)CCC(C)(C)C[C@H]54)[C@]3(C)CC[C@H]2C1(C)C [Compound 5, taraxerol acetate] | 0.75 | >3.4 | 128 ± 5 | 1.1 | 178 ± 14 | 0.13 | >20 | ~20 | 0.4 | >6.8 | 62.9 ± 1.5 | >3.1 | 138 ± 61 | > 427 | – | – | – | – | EC50 (all trypanosome species; Trypanosoma equiperdum, all but T. equiperdum, read-out: EC50 against most trypanosome species): > 60 µM; EC50 (T. equiperdum (BoTat1); average ± SEM): 21.3 ± 0.3 µM; toxicity to HEK 293 cells at the highest concentration tested (HEK 293 cells; highest tested concentration 100 or 200 µg/mL (1: 300 µM; 4: 140 µM; 5: 427 µM)): not toxic; EC50 ([3]; Leishmania mexicana, read-out: L. mexicana EC50, promastigotes, average ± SEM): > 427 µM
2 | COc1ccc2c(c1OC)CN(C)c1c-2ccc2cc3c(cc12)OCO3 [Compound 6, dihydrochelerythrin] | 1.8 | 37.0 | 2.56 | 6.0 | 8.3 ± 0.57 | 2.2 | 30.4 | 3.09 ± 0.52 | 0.8 | 87 | 1.09 ± 0.06 | 68.0 | – | 94.4 ± 23.2 | 11.4 | 5.4 ± 0.6 | 18 | 1.4 to 8.3 | EC50 [4]: 1.37 to 3.09 µM; EC50 (T. b. brucei B48; read-out: T. b. brucei B48 EC50, multi-drug-resistant clone, average ± SEM): 2.55 ± 0.29 µM; EC50 (T. b. brucei s427 [2]; average ± SEM, at least three independent determinations): 1.37 ± 0.43 µM; EC50 ([3]; promastigotes, average ± SEM, read-out: L. mexicana EC50): 5.44 ± 0.57 µM
3 | CC(C)CNC(=O)/C=C/c1ccc2c(c1)OCO2 [Compound 7, fagaramide] | 0.6 | 33.8 | 10.9 ± 0.4 | 1.9 | 34.4 ± 5.7 | 1.5 | 13.4 | 27.1 ± 0.1 | 0.6 | 33.0 | 10.9 ± 0.4 | 20.4 | 17.8 ± 7.3 | 364 ± 44 | 10.6 | 13.3 ± 0.4 | 27 | 10.9 to 34.4 | EC50 (all trypanosome species; Trypanosoma, read-out: EC50 against all trypanosome species (range)): 10.9 to 34.4 µM; EC50 (T. b. brucei s427 [6]): 7.3 µM; EC50 (macrophages RAW264.7): 215 µM
4 | N=C(N)c1ccc(N=NNc2ccc(C(=N)N)cc2)cc1 [DA, diminazene aceturate, reference compound] | – | – | – | – | – | – | – | – | – | – | – | – | – | – | – | – | – | – | EC50 [1, 11]: 0.51 µM; EC50 [1, 12]: 0.46 µM
5 | N=C(N)c1ccc(OCCCCCOc2ccc(C(=N)N)cc2)cc1 [PMD, pentamidine isethionate, reference compound] | approximately 50 | – | – | – | – | – | – | – | – | – | – | – | – | – | – | – | – | – | EC50 (T. b. brucei B48; Trypanosoma brucei, read-out: T. b. brucei B48 EC50, a = EC50 of control for 1, 3, 4): 0.312 µM; EC50 (T. b. brucei B48; Trypanosoma brucei, read-out: T. b. brucei B48 EC50, b = EC50 of control for 5, 6, 7): 0.288 µM; T. b. brucei B48 RF (T. b. brucei B48; a = control for 1, 3, 4): 47.3; T. b. brucei B48 RF (T. b. brucei B48; b = control for 5, 6, 7): 55.4; EC50 (T. equiperdum (BoTat1); Trypanosoma equiperdum, a = EC50 of control for 1, 3, 4): 0.0081 µM; EC50 (T. equiperdum (BoTat1); Trypanosoma equiperdum, b = EC50 of control for 5, 6, 7): 0.0033 µM; EC50 (T. evansi (AnTat 3/3); [11]): 0.016 µM; EC50 (T. evansi (AnTat 3/3); [12]): 0.0025 µM; EC50 (T. b. brucei s427 [2]; [11]): 0.0066 µM; EC50 (T. b. brucei s427 [2]; [12]): 0.0052 µM; EC50 ([3]; Leishmania mexicana, a = EC50 of control for 1, 3, 4, read-out: L. mexicana EC50): 1.1 µM; EC50 ([3]; Leishmania mexicana, b = EC50 of control for 5, 6, 7, read-out: L. mexicana EC50): 0.76 µM
